The values below come from ChEMBL document CHEMBL1158004, “New alkaloids from the indopacific sponge Stylissa carteri” (J Nat Prod, 1999).

In brackets after ≈: the same amount, converted by molar mass.

The experiment in a line: Cytotoxicity against human MONO-MAC 6 cells assessed as [3H]thymidine incorporation after 48 hrs. The format is functional, cell-based.

As to `NC1=NC(=O)/C(=C2\CCNC(=O)c3[nH]c(Br)cc32)N1` [HYMENIALDISINE], the IC50 stood at 0.2 µg/mL (≈ 0.617 µM).
The figure for `NC1=N/C(=C2/CCNC(=O)c3[nH]ccc32)C(=O)N1` [DEBROMOHYMENIALDISINE] is 2.4 µg/mL (≈ 9.79 µM).
